From patent US20260209260A1, “VECTORIZED NHC IRIDIUM(III) COMPLEXES AND USE THEREOF IN PHOTODYNAMIC THERAPY AND/OR DIAGNOSTIC” (CENTRE NATIONAL DE LA RECHERCHE SCIENTIFIQUE, priority 2022, published 2026)
Several values for one entry are separate records, joined by “and”; a condition that tells them apart may be missing. Equal values may be shown once. Read-outs that look alike come from different tables or passages of the source.

Legend:
[1] = tested on: PC-3 prostate cancer cells (PSMA-negative); assay: Cell viability assay (MTT), dark and blue light; type: cell-based, Human
Description: (§1) Cells were grown in humidified incubators at 37° C. in 5% CO2. Murine MC3T3 osteoblast and NIH-3T3 fibroblast cells-used as non-tumor cell models-were cultured in a-MEM medium and DMEM medium supplemented with 10% fetal bovine serum (FBS) and 1% Penicillin/Streptomycin (P/S) antibiotics, respectively. Human T24 bladder, MGHU3 bladder, Scaber bladder, A549 lung, MCF7 breast, MiaPaCa2 pancreas cancer cells were cultured in DMEM medium supplemented with 10% FBS and 1% P/S antibiotics. Human ASPC-1 pancreas, PC-3 prostate, DU-145 prostate, C4-2B prostate and 22rV1 prostate cancer cells were cultured in RPMI medium supplemented with 10% FBS and 1% P/S antibiotics. Human Hela cervix and HepG2 liver cancer cells were cultured EMEM medium supplemented with 10% FBS and 1% P/S antibiotics.
(§2) MTT reagent (3-(4,5-dimethylthiazol-2-yl)-2,5-diphenyltetrazolium bromide) was used to determine cell death as originally described by Mosmann. Briefly, cells were seeded from 5,000 to 10,000 cells/well in 24-well plates (1 mL) depending on the cell type and allowed to attach overnight. The complexes were prepared in DMSO. The concentration of the complexes was calculated based on the elemental composition of the complexes determined by the elemental analyses. All cell viability experiments were carried out with a fixed concentration of 0.1% (v/v) DMSO. After 72 h of treatment, cells were incubated at 37° C. and 5% CO2 with 25 μL of MTT solution (5 mg/ml; Sigma-Aldrich) in 24-well plates for 3 to 4 h. After solubilization with 500 μL of DMSO, formazan was quantified spectrophotometrically with a microplate reader at 570 nm absorbance (ClarioSTAR, BMG LabTech). […] All the results were calculated from data obtained in at least three independent experiments performed in triplicate.
(§3) Irradiation was conducted using an in-house device, a series of blue light LEDs selected according to the absorption spectra of the compounds at 458 nm wavelength with an emitted power of 9.6 Watts. The light fluence was measured at 458 nm with an optical power meter Thorlabs PM100A at different distances between the cell layer and the light source (5 and 10 cm).
(§4) Two sets of experiments were conducted in parallel for each complex to be studied:
(§5) 1. The cells were incubated with the different complexes (in the dark) for 72 h.
(§6) 2. The cells were incubated for 8 h with the different complexes (in the dark), then irradiated for 10 min, followed by an incubation in the dark up to 72 h.

[2] = tested on: C4-2B prostate cancer cells (PSMA-positive); assay: Cell viability assay (MTT), dark and blue light; type: cell-based, Human
Description: as §1, §2, §3, §4, §5, §6

[3] = tested on: NIH-3T3 fibroblast cells (non-tumor); assay: Cell viability assay (MTT), dark and blue light; type: cell-based, Murine
Description: as §1, with “Human ASPC-1 pancreas, PC-3 prostate, DU-145 prostate, C4-2B prostate and 22rV1 prostate cancer cells were cultured in RPMI medium supplemented with 10% FBS and 1% P/S antibiotics.” left out
as §2, §4, §5, §6

[4] = Lipophilicity: octanol-water partition coefficient, shake-flask method
Description: The octanol-water partition coefficients (P) of all the complexes were determined using a shake-flask method^8. Water (100 mL, distilled after milli-Q purification) and n-octanol (100 mL, Sigma Aldrich, ACS spectrophotometric grade, ≥99%) were shaken together for 24 h to allow saturation of both phases. Stock solutions of the compounds ([…]) were prepared in the aqueous phase. Aliquots (2 mL) of each of these stock solutions were then added to an equal volume of the n-octanol phase. The resultant biphasic solution was mixed for 15 min and then centrifuged (3000 tr/min, 5 min) to separate the phases. The concentrations of the complex in the organic and aqueous phases were then determined using UV absorbance spectroscopy (260 nm). The blank is the water saturated with n-octanol. Log P was defined as logarithm of the ratio of the concentrations of the complex in the organic and aqueous phases (values reported are the means of at least three separated determinations).
The Log P values have been determined by a classical shake-flask method.

[5] = Luminescence emission spectra and quantum yield; type: physicochemical; details: for λem: CH2Cl2, room temperature, λexc 365 nm or 470 nm; for ΦP emission phosphorescence quantum yield: room temperature, reference POPOP in hexane or rhodamine B in ethanol
Description: Fluorescence and phosphorescence emission spectra were obtained with a HORIBA JOBIN YVON, fluromax-4 and spectrofluorometer.
Luminescence quantum yields were measured according to the method of Demas and Crosby, on solution samples at RT. The quantum yield is defined as: […]
Where ΦP is the quantum yield of the sample, ΦR is the know quantum yield of the reference standard. […].
The luminescence spectra of vectorized iridium(III) complexes were determined in CH2Cl2 at room temperature (Table 3).

[6] = UV/Vis absorption spectra; type: physicochemical; details: room temperature; for λmax (nm) ε (M^−1 · cm^−1): air-saturated CH2Cl2 or CH2Cl2/MeOH (1:1), 50 μM, ε in brackets, sh = shoulder
Description: UV/Vis absorption spectra were recorded at RT on solutions contained in quartz cuvettes (optical pathlength 1 cm, Hellma®) with a PerkinElmer® UV/VIS/NIR spectrophotometer Lambda 950 and a PerkinElmer® detector UV/VIS/NIR Accessory 2D Detector Module.

[7] = Emission lifetime measurement; type: physicochemical
Description: Fluorescence lifetime measurements were performed by an Edinburgh FLS920 spectrofluorimeter equipped with a TCC900 card for data acquisition in time-correlated single-photon counting experiments (0.5 ns time resolution) with a D2 lamp and an LDH—P-C-405 pulsed diode laser. The estimated experimental error is 2 nm on the band maximum (5% on the lifetime, 10% on the fluorescence quantum yield).
The emission lifetimes of biotin-vectorized complexes (I-a) to (I-l) range from 138 ns to 411 ns, among them, the lifetime of biotin-vectorized complexes (I-c), (I-e), (I-k) are 411, 224, and 322 ns respectively. The emission lifetimes of FTS-vectorized complexes (II-a) to (II-l) range from 167 ns to 486 ns, among them, the lifetime of FTS-vectorized complexes (II-c) and (II-k) are 319 and 486 ns respectively. The emission lifetimes of PSMA-vectorized complexes (III-a) to (III-l) are in the range of 159-649 ns, among them, the lifetime of complexes (III-a) and (III-k) were 248 and 649 ns, respectively. The emission lifetimes of Fc-vectorized complexes (IV-a) to (IV-l) are in the range of 178-228 ns.

T24 bladder cancer cells = assay: Cell viability assay (MTT), dark and blue light; type: cell-based, Human; details: for Photosensitizing index (PI) T24: dark vs blue light 458 nm
Description: as §1, with “Human ASPC-1 pancreas, PC-3 prostate, DU-145 prostate, C4-2B prostate and 22rV1 prostate cancer cells were cultured in RPMI medium supplemented with 10% FBS and 1% P/S antibiotics.” left out
as §2, §4, §5, §6

[8] = tested on: MC3T3 osteoblast cells (non-tumor); assay: Cell viability assay (MTT), dark and blue light; type: cell-based, Murine; details: in the dark, 72 h; read-out: GI50 MC3T3 Dark
Description: as §1, with “Human ASPC-1 pancreas, PC-3 prostate, DU-145 prostate, C4-2B prostate and 22rV1 prostate cancer cells were cultured in RPMI medium supplemented with 10% FBS and 1% P/S antibiotics.” left out
as §2, §4, §5, §6

[9] = 8 h in the dark, blue light 458 nm 10 min, then dark up to 72 h, read-out: GI50 NIH-3T3 Blue
[10] = in the dark, 72 h, read-out: GI50 NIH-3T3 Dark
[11] = n-octanol/water, shake-flask, mean of at least three determinations
[12] = 8 h in the dark, blue light 458 nm 10 min, then dark up to 72 h, read-out: GI50 T24 Blue
[13] = in the dark, 72 h, read-out: GI50 T24 Dark

Compound | GI50 [3, 9] [µM] | GI50 [3, 10] [µM] | Log P [4] | λem [5] | ΦP emission phosphorescence quantum yield [5] [%] | λmax (nm) ε (M^−1 · cm^−1) [6] | τ1 emission lifetime [7] [ns] | Log P [4, 11] | GI50 (T24 bladder cancer cells; [12]) | SI (vs NIH-3T3) T24 Dark (T24 bladder cancer cells) | Photosensitizing index (PI) T24 (T24 bladder cancer cells) | GI50 (T24 bladder cancer cells; [13]) | other results
F[P-](F)(F)(F)(F)F.O=C(O)CC[C@H](NC(=O)N[C@@H](CCCCNC(=O)CCn1cc[n+]2[c]1[Ir-3]13([c]4ccccc4-c4ccc5ccccc5[n+]41)([c]1ccccc1-c1ccc4ccccc4[n+]13)[n+]1ccccc1-2)C(=O)O)C(=O)O [III-g] | > 100 | > 100 | 0.33 ± 0.01 | 593 nm | 0.1 | 334 (18100), 436 (4280) nm (M^−1 · cm^−1) | 191 | – | – | – | – | – | GI50 ([1]; 8 h in the dark, blue light 458 nm 10 min, then dark up to 72 h, read-out: GI50 PC-3 Blue): 48.7 µM; GI50 ([1]; PC3, blue light, read-out: GI50): 48.7 µM; Photosensitizing index (PI) ([1]; PC3, dark vs blue light): >2.1; GI50 ([1]; PC3, dark, read-out: GI50): > 100 µM; SI (vs NIH-3T3) PC-3 Blue ([1]; blue light 458 nm): >2.1; GI50 ([1]; in the dark, 72 h, read-out: GI50 PC-3 Dark): ≥ 100 µM; GI50 ([2]; 8 h in the dark, blue light 458 nm 10 min, then dark up to 72 h, read-out: GI50 C4-2b Blue): 17.6 µM; GI50 ([2]; C4-2b, blue light, read-out: GI50): 17.6 µM; Photosensitizing index (PI) ([2]; C4-2b, dark vs blue light): 1.2; GI50 ([2]; C4-2b, dark, read-out: GI50): 21.3 µM; SI (vs NIH-3T3) C4-2b Blue ([2]; blue light 458 nm): >5.7; GI50 ([2]; in the dark, 72 h, read-out: GI50 C4-2b Dark): 21.3 µM; GI50 ([3]; NIH-3T3, blue light, read-out: GI50): > 100 µM; GI50 ([3]; NIH-3T3, dark, read-out: GI50): > 100 µM
COC(=O)c1ccc2[c](c1)[Ir-3]13([c]4cc(C(=O)OC)ccc4-c4cccc[n+]41)([c]1n(CCCNC(=O)CCCC[C@@H]4SC[C@@H]5NC(=O)N[C@@H]54)cc[n+]1-c1cccc[n+]13)[n+]1ccccc1-2.F[P-](F)(F)(F)(F)F [I-c] | > 100 | > 100 | – | – | 5.9 | 310 (sh) (16860), 358 (4090), 400 (3295) nm (M^−1 · cm^−1) | 411 | −0.78 ± 0.01 | 24.9 µM and 24.5 µM | >3.7 | 1.1 | 26.7 µM and 26.9 µM | SI (vs NIH-3T3) T24 Blue (T24 bladder cancer cells; blue light 458 nm): >4.1
Cc1ccc2[c](c1)[Ir-3]13([c]4cc(C)ccc4-c4cccc[n+]41)([c]1n(CCCNC(=O)CCCC[C@@H]4SC[C@@H]5NC(=O)N[C@@H]54)cc[n+]1-c1cccc[n+]13)[n+]1ccccc1-2.F[P-](F)(F)(F)(F)F [I-b] | > 100 | > 100 | – | – | 0.5 | 314 (sh) (18240), 382 (6150) nm (M^−1 · cm^−1) | 177 | 0.43 ± 0.01 | 8.3 µM | >7.3 | – | 13.7 µM | maximum absorption, lowest-lying bands in the visible region over 360 nm ([6]; CH2Cl2 or CH2Cl2/MeOH (1:1)): around 380 nm; Photosensitizing index (PI) T24 (T24 bladder cancer cells; listed as l-b): 1.7
F[P-](F)(F)(F)(F)F.O=C(CCCC[C@@H]1SC[C@@H]2NC(=O)N[C@@H]21)NCCCn1cc[n+]2[c]1[Ir-3]13([c]4cccc5ccc6ccc[n+]1c6c45)([c]1cccc4ccc5ccc[n+]3c5c14)[n+]1ccccc1-2 [I-i] | > 100 | > 100 | 0.60 ± 0.06 | 522-567 nm | <0.1 | 320 (13840), 410 (3920) nm (M^−1 · cm^−1) | 210 | – | 35.4 µM | – | 1.4 | – | Photosensitizing index (PI) NIH-3T3 ([3]; dark vs blue light 458 nm): >1; GI50 [8]: 50.2 µM
